From publication PMC11945079, “Gadolinium Complex with Tris-Hydroxypyridinone as an Input for New Imaging Probes: Thermodynamic Stability, Molecular Modeling and Biodistribution” (Molecules, 2025)
Like-named read-outs stand apart in the source and are kept apart here. Values belong to the compound of their own block, whether it stands above or below them.

Assays:
[1] = cited from earlier work; for pGd: pH 7.4
[2] = in water; cited from earlier work
[3] = Potentiometric titration of the ligand alone: protonation constants and species distribution; type: physicochemical
Procedure: (§1) All the studies were performed by potentiometric titrations of the ligand alone or in the presence of a 1:1 Gd/L stoichiometric ratio (Figure 1), which allowed for the determination of the protonation constants of KEMPPr(3,4-HP)3, as well as the stability constants of the formed Gd(III) complexes, from the best fitting of the experimental curves with the Hyperquad program (Table 1). Other Gd-to-ligand molar ratios were not considered in the present study, because it was admitted that species with a 1:2 stoichiometric ratio are present only at quite low concentrations for pH ca 7 [10].
The compound KEMPPr(3,4-HP)3 was synthesized according to the previously published procedure. The GdCl3 stock solution (9.8 × 10^−3 M) was prepared from the gadolinium salt in HCl 0.1 M medium to avoid hydrolysis, and standardized by inductively coupled plasma emission (ICP). The 0.1 M HCl solution used in the calibration of the glass electrode was obtained from a Titrisol ampoule (Merck, Darmstadt, Germany). The precise amount of HCl in the Gd(III) solution was determined by the standard-addition method using 0.1 M HCl (Titrisol). The titrant solution used in the potentiometric titrations was obtained from a carbonate-free 0.1 M KOH commercial ampoule (Titrisol) and standardized by titration with potassium hydrogen phthalate, and rejected whenever the percentage of carbonate (Gran’s method) was higher than 1% of the total amount of base. The potentiometric studies were performed with an automated potentiometric apparatus containing a Crison micropH 2002 millivoltimeter, a Crison microBu 2031 burette (Crison Instruments, Barcelona, Spain) and a Haake thermostatic bath (Haake Technik GmbH, Vreden, Germany, T = 25.0 ± 0.1 °C), controlled by the PASAT program. The glass and Ag/AgCl reference electrodes were previously conditioned in different DMSO/water mixtures of an increasing DMSO % composition (until 50%) and the response of the glass electrode was measured through the determination of the Nernst parameters by Gran’s method, obtained from strong acid–strong base (HCl/KOH) calibrations. […]
The stepwise protonation constants, Ki = [HiL]/[Hi−1L][H] of the ligand, and the global stability constants of the Gd(III) complex, β (GdmHhL) = [GdmHhLl]/[Gd]^m[H]^h[L]^l, were calculated by fitting the potentiometric data with the Hyperquad 2003 software. The gadolinium hydrolysis model and ionic product of water (Kw) were determined under the same experimental conditions (50% (w/w) DMSO/water medium, I = 0.1 M KCl, T = 25.0 ± 0.1 °C) and the values obtained for the stability constants (log β (GdH−2) = −15.17, log β (GdH−3) = −24.06) were included in the equilibrium model as well as the value of Kw (10^−14.95). […]

[4] = Potentiometric titration of the 1:1 Gd/L system: stability constants of the Gd(III) complexes, pGd, species distribution; type: physicochemical
Procedure: as §1
Analysis of the potentiometric titration curves (Figure 1), namely those obtained for the Gd(III)/KEMPPr(3,4-HP)3 system under 1:1 (Gd/L) stoichiometry, evidences a change in the deprotonation profile of the ligand due to its coordination to Gd (III). Since some precipitation was detected above pH = 6, the corresponding experimental points were not used in the calculations to obtain the Gd (III) complexation model. The obtained Gd(III) complexation model presents some similarities to that previously found for H3L2 (see Table 1), firstly involving the formation of a bis-chelated GdH4L^4+ species, a GdH2L^2+ tetra-chelated complex, and afterwards the formation of a neutral hexa-coordinated GdL species. […] Concerning the Gd(III)/H3L2 system (in water, CL = CGd = 3.2 × 10^−4 M), the Gd(III) complexation also begins at pH ca 2, and the GdL species forms at pH ca 3.7 and becomes dominant at pH 4.5 [11]. For the Gd (III)/NTP (PrHP)3 system (in water), the GdL species is not involved in the proposed model.
The compound KEMPPr(3,4-HP)3 was synthesized according to the previously published procedure. The GdCl3 stock solution (9.8 × 10^−3 M) was prepared from the gadolinium salt in HCl 0.1 M medium to avoid hydrolysis, and standardized by inductively coupled plasma emission (ICP). The 0.1 M HCl solution used in the calibration of the glass electrode was obtained from a Titrisol ampoule (Merck, Darmstadt, Germany). The precise amount of HCl in the Gd(III) solution was determined by the standard-addition method using 0.1 M HCl (Titrisol). The titrant solution used in the potentiometric titrations was obtained from a carbonate-free 0.1 M KOH commercial ampoule (Titrisol) and standardized by titration with potassium hydrogen phthalate, and rejected whenever the percentage of carbonate (Gran’s method) was higher than 1% of the total amount of base. The potentiometric studies were performed with an automated potentiometric apparatus containing a Crison micropH 2002 millivoltimeter, a Crison microBu 2031 burette (Crison Instruments, Barcelona, Spain) and a Haake thermostatic bath (Haake Technik GmbH, Vreden, Germany, T = 25.0 ± 0.1 °C), controlled by the PASAT program. The glass and Ag/AgCl reference electrodes were previously conditioned in different DMSO/water mixtures of an increasing DMSO % composition (until 50%) and the response of the glass electrode was measured through the determination of the Nernst parameters by Gran’s method, obtained from strong acid–strong base (HCl/KOH) calibrations.
Potentiometric titrations of compound KEMPPr(3,4-HP)3, in the absence or presence of Gd(III), were performed in 50% (w/w) DMSO/water medium at an ionic strength (I) of 0.1 M KCl, T = 25.0 ± 0.1 °C, using 0.1 M KOH titrant. Each titration was repeated three times, for which the total volume was 20 mL, the total concentration of ligand (CL) was 3.2 × 10^−4 M and the Gd^3+/KEMPPr(3,4-HP)3 molar ratios were 0:1 and 1:1.
The stepwise protonation constants, Ki = [HiL]/[Hi−1L][H] of the ligand, and the global stability constants of the Gd(III) complex, β (GdmHhL) = [GdmHhLl]/[Gd]^m[H]^h[L]^l, were calculated by fitting the potentiometric data with the Hyperquad 2003 software. […]

[5] = Literature Gd(III) complex stability constants and pGd of comparison ligands; type: physicochemical; conditions: pH = 7, CL = 10^−5 M, CL/CGd = 10, from constants in water
[6] = in water, CL = CGd = 3.2 × 10^−4 M
[7] = physiological pH (7.4), 50% (w/w) DMSO/water
[8] = 50% w/w DMSO/water, CL = 3.2 × 10^−4 M, 1:1
[9] = 50% w/w DMSO/water, T = 25.0 ± 0.1 °C, I = 0.1 M KCl

SMILES: O=C(O)CN1CCN(CC(=O)O)CCN(CC(=O)O)CCN(CC(=O)O)CC1 [DOTA, 1,4,7,10-tetraazacyclododecane N,N′,N″,N‴-tetra-acetic acid]
- pGd [1]: 20.4

SMILES: Cc1c(O)c(=O)ccn1CCCNC(=O)CCC(CCC(=O)NCCCn1ccc(=O)c(O)c1C)(CCC(=O)NCCCn1ccc(=O)c(O)c1C)[N+](=O)[O-] [H3L2]
- difference between log K4 and log K5 [2]: 1.15
- pH at which Gd(III) complexation begins [1, 6]: ~2
- pH at which the GdL species becomes dominant [1, 6]: 4.5
- pH at which the GdL species forms [1, 6]: ~3.7
- log β (GdmHhLl), (m,h,l) = (1,0,1) (log KGdL) ([1]; in water): 21.22(5)
- log β (GdmHhLl), (m,h,l) = (1,2,1) ([1]; in water): 30.03(6)
- log β (GdmHhLl), (m,h,l) = (1,4,1) ([1]; in water): 37.74(4)
- pGd (−log [Gd(III)]) ([1]; pH = 7, CL = 10^−5 M, CL/CGd = 10, in water): 14.3

SMILES: Cn1ccc(C(=O)NCCN(CCNC(=O)c2ccn(C)c(=O)c2O)CCNC(=O)c2ccn(C)c(=O)c2O)c(O)c1=O [TREN-1-Me-3,2-HOPO]
- log KGdL (thermodynamic stability of the Gd(III) complex) [1]: 19.2

SMILES: O=C(O)CN(CCN(CC(=O)O)CC(=O)O)CCN(CC(=O)O)CC(=O)O [DTPA, diethylenetriamine penta-acetic acid]
- pGd [1]: 19.1

- difference between log K2 and log K3 ([3]; 50% w/w DMSO/water): 1.1
- composition of the solution: H3L species [3, 7]: 99.95%
- composition of the solution: monocharged H4L^+ species [3, 7]: 0.05%
- pH range of predominance of the neutral H3L species ([3]; species distribution, CL = 3.2 × 10^−4 M, 50% (w/w) DMSO/water): 3.4–9.9
- pH at which Gd(III) complexation begins [4, 8]: ~2
- pH at which the GdL complex becomes prevalent [4, 8]: 4.8
- pH at which the neutral GdL complex begins to form [4, 8]: ~3.5
- log β (GdmHhLl), (m,h,l) = (1,0,1) (log β GdL) [4, 9]: 26.59(8)
- log β (GdmHhLl), (m,h,l) = (1,1,1) [4, 9]: 31.30(4)
- log β (GdmHhLl), (m,h,l) = (1,2,1) [4, 9]: 35.17(7)
- log β (GdmHhLl), (m,h,l) = (1,4,1) [4, 9]: 41.35(8)
- log β (GdmHhLl), (m,h,l) = (1,0,1) (log β GdL) ([4]; 50% w/w DMSO/water, T = 25.0 ± 0.1 °C, I = 0.1 M KCl, listed as H3L): 26.59
- pGd (−log [Gd(III)]) ([4]; pH = 6, CL = 10^−5 M, CL/CGd = 10, 50% w/w DMSO/water): 13.2
SMILES: Cc1c(O)c(=O)ccn1CCCNC(=O)C1(C)CC(C)(C(=O)NCCCn2ccc(=O)c(O)c2C)CC(C)(C(=O)NCCCn2ccc(=O)c(O)c2C)C1 (centres unmarked) [KEMPPr(3,4-HP)3]

- pGd (−log [Gd(III)]) [5]: 12.3
SMILES: Cc1c(O)c(=O)ccn1CCCNC(=O)CCN(CCC(=O)NCCCn1ccc(=O)c(O)c1C)CCC(=O)NCCCn1ccc(=O)c(O)c1C [NTP(PrHP)3]
- log β (GdmHhLl), (m,h,l) = (1,1,1) (log KGdHL) ([1]; in water): 26.35
- log β (GdmHhLl), (m,h,l) = (1,2,1) ([1]; in water): 31.16
- log β (GdmHhLl), (m,h,l) = (1,3,1) ([1]; in water): 35.69
- log β (GdmHhLl), (m,h,l) = (1,3,2) ([1]; in water): 52.3
- log β (GdmHhLl), (m,h,l) = (1,4,1) ([1]; in water): 39.46
- log β (GdmHhLl), (m,h,l) = (1,5,1) ([1]; in water): 42.8
- log β (GdmHhLl), (m,h,l) = (1,5,2) ([1]; in water): 65.3
